Source: US20110003778A1, “MINERALCORTICOID RECEPTOR ANTAGONISTS FOR THE TREATMENT OF ENDOMETRIOSIS” (Bayer Schering Pharma Aktiengesellschaft, priority 2007, published 2011)
Entries after “also recorded” stand apart in the source; their conditions may differ.

Assays:
endometriotic lesions [1] = assay: Endometriosis model in rhesus macaques: uterus weight and weights/size of endometrial lesions after 60 days of treatment; assay type: in vivo
Protocol: (§1) The activity of the mineralcorticoid receptor antagonist spironolactone was tested in an endometriosis model in non-human primates. Non-human primates are the only species apart from man where endometriosis occurs spontaneously under natural conditions. They are therefore the most relevant model for examining this disorder. […] In this procedure, the animals are given a depot for estradiol substitution which keeps the serum level at 80 to 100 pg/ml. In this manner, it is ensured that the endometriotic lesions are exposed to physiological concentrations of estradiol. By virtue of the depot, interindividual variations of the hormone concentrations and their effect on the results can be excluded. After the treatment, the size of the endometrium lesions was determined, and the proliferation of these lesions was detected by a histological analysis. […] In an autologous transplantation, a plurality of lesions from endometrium tissue were implanted subcutaneously and intraperitoneally/abdominally into rhesus macaques.

endometriotic lesions [2] = assay: Rate of proliferation of endometrial lesions in the rhesus macaque endometriosis model (Ki67 staining, BrDU incorporation); assay type: in vivo, rhesus macaques; details: abdominal lesions, secretory cells; 60 days spironolactone vs control; FIG. 3
Protocol: as §1, with “Accordingly, the mineralcorticoid receptor antagonist spironolactone has” for “In an autologous transplantation,”, “positive effect on endometriosis genesis.” for “plurality of lesions from endometrium tissue were implanted subcutaneously and intraperitoneally/abdominally into rhesus macaques.”
Examination of the rate of proliferation of endometrial lesions in an endometriosis model in rhesus macaques after treatment with spironolactone.
Both detection of cell division in the endometriotic lesions by Ki67 (top row) and by incorporation of BrDU (bottom row) show a reduced value in the animals treated with spironolactone (control, left, compared to spironolactone, right).

[3] = after 60 days of treatment, macaque model, n = 4

C[C@]12CC[C@@H]3c4ccc(O)cc4CC[C@H]3[C@@H]1CC[C@@H]2O [E2, estradiol]
Intraabdominal lesion wt (endometriotic lesions [1]; [3]): 0.068 + 0.11 g
Subcutaneous lesion wt (endometriotic lesions [1]; [3]): 0.039 ± 0.008 g
Uterus wt (endometriotic lesions [1]; [3]): 3.75 ± 0.496 g

CC(=O)S[C@@H]1CC2=CC(=O)CC[C@]2(C)[C@H]2CC[C@@]3(C)[C@@H](CC[C@@]34CCC(=O)O4)[C@H]12 [spironolactone]
size of the endometriotic lesions compared to control animals (endometriotic lesions [1]; 60 days estradiol + spironolactone 30 mg/kg/day vs estradiol control): significant reduction of the endometriotic lesions
effect on the uterus as such (endometriotic lesions [1]; 60 days estradiol + spironolactone vs estradiol control): no significant effect
weight of subcutaneous and intraperitoneal/abdominal lesions after treatment (in words) (endometriotic lesions [1]; 60 days estradiol + spironolactone vs estradiol control, both types of lesions): reduction in weight
proliferation in the lesions by bromodeoxyuridine (BrDU) incorporation (endometriotic lesions [2]): reduction of proliferation; also recorded: strongly reduced; also recorded: reduced value
proliferation in the lesions by staining of the mitotic antigen Ki67 (endometriotic lesions [2]): reduction of proliferation; also recorded: strongly reduced; also recorded: reduced value
